{"source": "patent US7887847B2", "about": "“Nutritional supplement for treatment of ocular diseases” (priority 2004, dated 2011)", "origin": "cited, not measured here", "test_system": "macular degeneration", "conditions": "adults with the highest dietary intake compared with people with the lowest intake", "data": [{"smiles": "CC1=C[C@H](O)CC(C)(C)[C@H]1/C=C/C(C)=C/C=C/C(C)=C/C=C/C=C(C)/C=C/C=C(C)/C=C/C1=C(C)C[C@@H](O)CC1(C)C", "note": "[lutein, Lutein]", "values": [{"measurement": "decreased risk of macular degeneration", "value": 57, "unit": "%"}]}]}
